The test system of series [1] is mouse sperm. Put plainly: Mouse sperm motility and progressivity (CASA system, Hamilton-Thorne). Type of series: cell-based. The following applies: for difference in treated mouse sperm compared to controls: motility/progressivity. As to the method: Extract epididymis and open them in CPA medium (18% Raffinose and 3% Low fat milk powder). Let spermatozoids swim out for 5 min at room temperature.
For each condition, take 4 μl of mouse sperm in CPA and place in 196 μl of HTF medium from the incubator (at 37° C.). Let it incubate 5 min. in the 37° C. incubator, add substances to the HTF medium (see formulation below) and incubate for different times.
At each time point, fill a Leja-Slide with 25 μl of the HTF buffer containing the diluted sperm and place in the sperm counting machine (Hamilton-Thorne, USA). The machine takes 10 pictures per samples and analyses the different parameters (motility, progressivity,etc. . . . ). Sperm motility analysis was done blindly. Glycolic acid and […] were given to the technician from the facility as Substance 1 and Substance 2, only later did […] get to know which belong to what compound.
(§1) The examples tested the effect of 10 to 30 mM of glycolic acid and D-lactate on mouse sperm motility and progressivity or on bull motility. For this, epididymic mouse sperm from two strains (WT and DJ-1) or ejaculated frozen bull sperm was obtained. Sperm from each individual was divided and treated either with glycolic acid or with the vehicle for up to 90 minutes. Mouse sperm motility and progressivity was determined with the help of an automatized machine (CASA system, Hamilton-Thorne Research, http://www.hamiltonthorne.com/index.php/products/casa-products/sperm-analysis-systems-research) that uses high frequency photo images and image analysis to analyze these parameters. Frozen ejaculated bull sperm motility was assessed by an experienced technician. Mouse sperm from WT and DJ-1 mice was divided by the software into motile and non-motile sperm according to standardized parameters and results are given as percentages of the total population identified as motile sperm (FIG. 1-4). Sperm progressivity alone was analyzed only on the mouse sperm, as only the software from the CASA system is sensitive enough to make this analysis and this machine can only analyze mouse sperm. Bull sperm was divided into progressive motile, motile (the sum of progressive motile and motile on the spot) and the rest (FIGS. 5, 6 and 7).

In series [2] the test system is human sperm. Kind of series: Human sperm motility, fresh and defrosted sperm. Type of series: cell-based. The following applies: 30 and 60 mM, significant (p<0.05) over whole experiment. As to the method:
Human sperm was collected from donors after ejaculation and used on the same day. Frozen human sperm was defrosted in a warm bath before starting the experiments. The regional ethical committee approved sample collection and use of human sperm. Both fresh and frozen human sperm were centrifuged, the supernatant was removed and the sperms were resuspended in HTF-like medium alone or with glycolic acid. Sperms were incubated with the 30 and 60 mM glycolic acid for 10 min before the measurements began. Measurements were performed by an experienced technician from the urology department.
(§2) This enhancement can be observed in human sperm, both defrosted and fresh, and defrosted bull sperm. Two-way ANOVA analysis was used (much more restrictive than a t-Test). * means p<0.05, **p<0.01, ***p<0.001 and […]. […] Both sperm motility and mitochondrial measurements are normalized to a control at time-point 0.

Series [3] deals with sperm mitochondrial membrane potential. Put plainly: Mitochondrial membrane potential of sperm (JC-1 and FACS sorting). Type of series: cell-based. The following applies: JC-1, FACS; normalized to control at time-point 0; FIG. 8.
From the text: as §2

The test system of series [4] is bull sperm. Put plainly: Bull sperm motility and progressive motility, defrosted sperm, assessed by technician. Type of series: cell-based. As to the method:
Frozen bull sperm was defrosted in a warm bath and centrifuged. The supernatant was removed and the sperms were resuspended in HTF-like medium alone or with glycolic acid. Sperms were incubated with the 10, 20 and 30 mM glycolic acid for 10 min. before the measurements began. Measurements were performed by an experienced technician from the urology department.
as §1

For series [5] the following is noted: estimated; cited from earlier work.
The mark [6] stands for this setting: 10 mM, 30 minutes after application, average stated for mouse and bull sperm.

`C[C@@H](O)C(=O)O` [D-lactate, reference compound]: the “difference in treated mouse sperm compared to controls” value in series [1] is “not”.
In the case of `O=C(O)CO` [Glycolic acid, 2-hydroxyethanoic acid], the “sperm motility (FIG. 8), normalized to control at time-point 0” value in series [2] is given as “enhances sperm motility”; in series [4] (defrosted bull sperm, significant (p<0.05) over whole experiment), “enhances sperm motility”. Moreover, the mitochondrial membrane potential result in series [3] was “did not increase”. Moreover, the “increase in sperm motility (percentage of motile spermatozoids)” value in series [1] (setting [6]) and in series [4] (setting [6]) was 19% throughout. The “increase in sperm progressivity (percentage of motile spermatozoids that move forward)” value in series [1] (setting [6]) and in series [4] (setting [6]) was 28% each time. Also, the “time over which the enhancement is sustained” value in series [1] (both species) and in series [4] (both species) was “up to 90 min” throughout. Further, in series [1], the “difference in treated mouse sperm compared to controls” value is “significance difference”. Besides, the “bull sperm motility and progressivity at higher concentrations” value in series [4] (20 and 30 mM compared to 10 mM glycolic acid) is “further increase”. Besides, the “sperm mobility, in particular sperm progressivity, at higher concentrations” value in series [4] (concentrations up to 60 mM, data not shown) is recorded as “increase”.
In the case of `OCCOCCO` [diethylene glycol], in series [5], the minimum toxic dose is 0.14 mg glycolic acid per kg of body weight.

(Values after patent US20170239201A1, “GLYCOLIC ACID ENHANCES SPERM MOBILITY” (MAX-PLANCK-GESELLSCHAT ZUR FORDERUNG DER WISSENSCHAFTEN E.V., priority 2014, published 2017).)
